According to publication PMC12066480, “Optimization of neuron-specific interfering peptides targeting GABAB receptor downregulation for proteolytic stability for conferring neuroprotection in a mouse model of cerebral ischemia” (Frontiers in Pharmacology, 2025):
Ends that are not written are not given here.

How the values were obtained:
[1] = tested on: cultured neuron/glia cells
[2] = tested on: cultured neurons (neuron/glia cultures)
[3] = Proteolytic stability in blood serum, Western blot; settings: peptide stock 1 μg/μL added 1:5, 37°C, 3 independent experiments and one technical replicate (Figures 3A-C)
Procedure: For testing the resistance of the peptides to proteolytic degradation blood serum was prepared from blood collected from naïve mice decapitated under deep isoflurane anesthesia. The blood samples were allowed to clot at RT for 10–15 min, followed by centrifugation at 2000 g for 10 min and 4°C to separate the serum. The serum was stored at −80°C until used.
For testing, a peptide stock solution of 1 μg/μL was added directly to the serum in a ratio of 1:5 and incubated at 37°C for different times. After incubation, the mixture was diluted 1:4 with PBS and the samples were incubated with 2x Laemmli sample buffer (Bio-Rad) for 1 h at 37°C. The samples were subjected to tricine-sodium dodecyl sulfate-polyacrylamide gel electrophoresis (SDS-PAGE) using 1 mm thick 16% gels modified for the detection of small peptides as described by ([Too et al., 1994]).
Proteins were transferred onto 0.1 μm nitrocellulose membranes, previously coated with a solution of 0.5% gelatine ([Too et al., 1994]), in a semi-dry transfer cell (Trans-Blot SD; Bio-Rad) for 70 min at 10 V. After transfer, the blots were immediately incubated in 4% PFA for 5 min, thoroughly washed and blocked for 1 h in PBS containing 5% non-fat dry milk at room temperature. Thereafter, the blots were incubated with Alexa Fluor 750-streptavidin overnight at 4°C in PBS containing 5% non-fat dry milk. The blots were washed three times for 10 min with TBST and immunoreactivity was detected by the ODYSSEY CLx scanner (LI-COR Biosciences). For quantification of signal intensity, the images were analyzed with the Image Studio software (LI-COR Biosciences).

[4] = tested on: cultured neurons (neuron/glia cultures); test: Peptide uptake into individual cultured neurons, colocalization immunocytochemistry; settings: 1 h

Sequence	uptake of truncated RVG peptides (attached to 9R) into cultured neurons, screening [1]	colocalization with GABAB receptors and neuronal marker NeuN [2]	degradation after incubation for up to 72 h in mouse serum [3]	other results
YTIWMPENRRRRRRRRR [Figure 2A peptide 2]	retained neuron-specific uptake	selectively taken up by neurons		
GTPCDIFTRRRRRRRRRSETQDTMKTGSSTNNNEEEKSR [CaMKII-Pep]			did not result in an appreciable degradation	
FTNSRGKRRRRRRRRRR [Figure 2A peptide 5]	retained neuron-specific uptake	selectively taken up by neurons		
GTPCDIFTRRRRRRRRRFQFTQNQKKEDSKTSTSV [PP2A-Pep]			did not result in an appreciable degradation	
YTIWMPENPRPGTPCDIFTNSRGKRASNGGGGRRRRRRRRR [Figure 1A peptide 12]				uptake into cultured neuron/glia cells (Figure 1A) [1]: did not affect its uptake into the cultured cells
GTPCDIFTRRRRRRRRR [Figure 2A peptide 4]	retained neuron-specific uptake	selectively taken up by neurons		peptide uptake into individual neurons by immunocytochemistry ([4]; 10 μg/mL, normalized to peptide 4, 50 neurons per sequence, two independent experiments (Figure 2B)): considerably more efficiently taken up by neurons than the other peptides tested; cell-type selectivity of uptake (NeuN vs GFAP colocalization) ([4]; NeuN, GFAP, DAPI, 3 independent determinations in triplicates (Figure 2C)): lack of uptake by astrocytes
GTPCDIFTRRRRRRRRRLQDTPEKTTYIK [CHOP-Pep]			did not result in an appreciable degradation	
